Test results as given in patent US5616615A, “Enaminone esters” (priority 1995, dated 1997).
Like-named read-outs stand apart in the source and are kept apart here.

What was measured:
[1] = system: Subcutaneous Pentylenetetrazol seizure; experiment: sc Met subcutaneous pentylenetetrazol (Metrazol) seizure test, mice; type: in vivo; conditions: Mus musculus, sc, read-out: scMet, animals protected/tested (converted)
[2] = system: Maximal electroshock seizures; experiment: MES maximal electroshock seizure test, mice ip; type: in vivo; conditions: for responders at 10 mg/kg / responders at 100 mg/kg / responders at 300 mg/kg: Mus musculus, ip; for responders at 10 mg/kg: mice ip; for responders at 10 mg/kg / responders at 100 mg/kg: read-out: MES, animals protected/tested (converted); for responders at 300 mg/kg: read-out: MES, animals protected/tested; for anti-MES protecting ability: Phase I
Procedure: Three tests were performed:
1. MES--Electroshock Seizure Test
(§1) Maximal electroshock seizures are elicited with a 60-cycle alternating current of 50 mA intensity (5-7 times that necessary to elicit minimal electroshock seizures) delivered via corneal electrodes for 0.2 seconds. A drop of 0.9% saline is instilled in the eye prior to application of the electrodes in order to […].

[3] = system: Maximal electroshock seizures; experiment: Phase VI oral MES test, rats; type: in vivo; conditions: Rattus norvegicus, oral, 50 mg/kg, read-out: MES, animals protected/tested (converted)
From the text: as §1
(§2) This oral screen is designated as phase VI.

[4] = in vivo; conditions: rat, po, 50 mg/kg
From the text: as §2

[5] = system: seizures; experiment: Anticonvulsant evaluation (ASP phase I / overall); type: in vivo, mice; conditions: Mus musculus, ip; Phase I; read-out: ASP Classification
Procedure: The first phase of the ADD Program involved performing tests on male Carworth Farms #1 mice. […] Three tests were performed:
as §1
The animal is observed for 30 minutes.

SMILES | responders at 100 mg/kg ([1]; 0.5 h, 30 min) | responders at 300 mg/kg ([1]; 0.5 h, 30 min) | responders at 100 mg/kg ([1]; 4 h, 4 h) | responders at 300 mg/kg ([1]; 4 h, 4 h) | responders at 10 mg/kg ([2]; 0.25 h, 0.25 h) | responders at 100 mg/kg ([2]; 0.5 h, 30 min) | responders at 300 mg/kg ([2]; 0.5 h, 30 min) | responders at 10 mg/kg ([2]; 0.5 h, 0.50 h) | responders at 10 mg/kg ([2]; 1 h, 1.00 h) | responders at 10 mg/kg ([2]; 2 h, 2.00 h) | responders at 100 mg/kg ([2]; 4 h, 4 h) | responders at 300 mg/kg ([2]; 4 h, 4 h) | responders at 10 mg/kg ([2]; 4 h, 4.00 h) | responders at 50 mg/kg ([3]; 0.5 h, 0.50 h) | responders at 50 mg/kg ([3]; 0.25 h) | responders at 50 mg/kg ([3]; 1.00 h) | responders at 50 mg/kg ([3]; 2.00 h) | responders at 50 mg/kg ([3]; 4.00 h) | Tox, animals toxic/tested [4] | minimal effective dose [5] | further results
COC(=O)C1C(=O)C=C(Nc2ccc(Cl)cn2)CC1C (centres unmarked) [Compound 116] | 0% | 100% | 0% | 0% | 75% | 66.7% | 100% | 100% | 50% | 0% | 0% | 0% | 0% | 100% | 100% | 100% | 100% | 100% | 0/4 | < 100 mg/kg | responders at 300 mg/kg ([1]; 0.5 h, 30 min, second trial): 75%; anti-MES protecting ability [2]: showed anti-MES protecting ability
COC(=O)C1C(=O)C=C(Nc2ccc(Cl)cc2)CC1(C)C (centres unmarked) [Compound 119] | 0% | 100% | 0% | 100% | – | 100% | 100% | – | – | – | 100% | 100% | – | 75% | 100% | 100% | 100% | 100% | 0/4 | < 100 mg/kg | –
CCOC(=O)C1C(=O)C=C(Nc2ccc(F)cc2)CC1C (centres unmarked) [Compound 124] | 0% | 100% | 0% | 0% | – | 100% | 100% | – | – | – | 0% | 0% | – | 100% | 100% | 100% | 100% | 75% | 0/4 | < 100 mg/kg | responders at 300 mg/kg ([1]; 0.5 h, 30 min, second trial): 50%
CCOC(=O)C1C(=O)C=C(Nc2ccc(C)cc2)CC1C (centres unmarked) [Compound 125] | 0% | 0% | 0% | 0% | 25% | 33.3% | 100% | 0% | 25% | 0% | 0% | 0% | 0% | 100% | 100% | 100% | 100% | 100% | 0/4 | < 100 mg/kg | anti-MES protecting ability [2]: showed anti-MES protecting ability
CCOC(=O)C1C(=O)C=C(Nc2ccc(C(C)(C)C)cc2)CC1C (centres unmarked) [Compound 130] | 0% | 0% | 0% | 0% | 100% | 33.3% | 100% | 75% | 50% | 0% | 0% | 0% | 0% | 25% | 25% | 50% | 75% | 25% | 0/4 | < 100 mg/kg | anti-MES protecting ability [2]: showed anti-MES protecting ability
